Legend:
Format in all cases: in vivo
[1] = system: Surinam grass (Brachiaria decumbens); experiment: Test B pre/postemergence
Outline: (§1)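 Visual injury scored 0 (no effect) to 100 (complete control) versus untreated controls after 13 to 15 days in greenhouse. Treatments were pre- or postemergence sprays of surfactant-containing solvent formulations; postemergence plants at 1- to 4-leaf stage, 2 to 18 cm.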

[2] = system: barnyardgrass (Echinochloa crus-galli); experiment: Test B pre/postemergence
Outline: as §1

[3] = system: cocklebur (Xanthium strumarium); experiment: Test B pre/postemergence
Outline: as §1

corn (Zea mays) = experiment: Test B pre/postemergence
Outline: as §1

[4] = system: crabgrass (Digitaria sanguinalis); experiment: Test B pre/postemergence
Outline: as §1

[5] = system: giant foxtail (Setaria faberii); experiment: Test B pre/postemergence
Outline: as §1

[6] = system: lambsquarters (Chenopodium album); experiment: Test B pre/postemergence
Outline: as §1

[7] = system: morningglory (Ipomoea coccinea); experiment: Test B pre/postemergence
Outline: as §1

[8] = system: pigweed (Amaranthus retroflexus); experiment: Test B pre/postemergence
Outline: as §1

[9] = system: velvetleaf (Abutilon theophrasti); experiment: Test B pre/postemergence
Outline: as §1

[10] = system: wheat (Triticum aestivum); experiment: Test B pre/postemergence
Outline: as §1

[11] = system: blackgrass (Alopecurus myosuroides); experiment: Test B postemergence; conditions: for Blackgrass plant response rating: 125 g ai/ha, scale 0 to 100 (0 no effect, 100 complete control); for Plant response rating, Blackgrass: 500 g ai/ha, scale 0 to 100
Outline: as §1

wild oat (Avena fatua) = experiment: Test B postemergence; conditions: for Oat, Wild plant response rating: 125 g ai/ha, scale 0 to 100 (0 no effect, 100 complete control); for Plant response rating, Oat, Wild: 500 g ai/ha, scale 0 to 100
Outline: as §1

[12] = system: barnyardgrass (Echinochloa crus-galli); experiment: Test B flooded paddy test; conditions: Flood, 1000 g ai/ha; scale 0 (no effect) to 100 (complete control)
Outline: (§2)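 Visual injury scoring (0 = no effect, 100 = complete control) versus controls made 13 to 15 days after treatment in the greenhouse. Test species were grown in flooded paddy to the 2-leaf stage: rice, barnyardgrass, umbrella sedge, duck salad.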

[13] = system: duck salad (Heteranthera limosa); experiment: Test B flooded paddy test; conditions: Flood, 1000 g ai/ha; scale 0 to 100
Outline: as §2

rice (Oryza sativa) = experiment: Test B flooded paddy test; conditions: Flood, 1000 g ai/ha; scale 0 to 100
Outline: as §2

[14] = system: umbrella sedge (Cyperus difformis); experiment: Test B flooded paddy test; conditions: Flood, 1000 g ai/ha; scale 0 to 100
Outline: as §2

[15] = Postemergence, 125 g ai/ha, scale 0 to 100 (0 no effect, 100 complete control)
[16] = Postemergence, 500 g ai/ha, scale 0 to 100
[17] = Preemergence, 125 g ai/ha, scale 0 to 100 (0 no effect, 100 complete control)
[18] = Preemergence, 500 g ai/ha, scale 0 to 100 (0 no effect, 100 complete control)

Structure (SMILES): COC(=O)c1nc(C2CC2)nc(N=CN(C)C)c1Br [Compound 19]
- Surinam Grass plant response rating [1, 15]: 40
- Plant response rating, Surinam Grass [1, 16]: 90
- Plant response rating, Surinam Grass [1, 17]: 60
- Surinam Grass plant response rating [1, 18]: 90
- Barnyardgrass plant response rating [2, 15]: 80
- Plant response rating, Barnyardgrass [2, 16]: 90
- Plant response rating, Barnyardgrass [2, 17]: 40
- Barnyardgrass plant response rating [2, 18]: 90
- Cocklebur plant response rating [3, 15]: 90
- Plant response rating, Cocklebur [3, 16]: 100
- Plant response rating, Cocklebur [3, 17]: 90
- Cocklebur plant response rating [3, 18]: 100
- Corn plant response rating (corn (Zea mays); [15]): 30
- Plant response rating, Corn (corn (Zea mays); [16]): 70
- Plant response rating, Corn (corn (Zea mays); [17]): 70
- Corn plant response rating (corn (Zea mays); [18]): 90
- Crabgrass plant response rating [4, 15]: 40
- Plant response rating, Crabgrass [4, 16]: 80
- Plant response rating, Crabgrass [4, 17]: 80
- Crabgrass plant response rating [4, 18]: 90
- Foxtail, Giant plant response rating [5, 15]: 20
- Plant response rating, Foxtail, Giant [5, 16]: 80
- Plant response rating, Foxtail, Giant [5, 17]: 20
- Foxtail, Giant plant response rating [5, 18]: 80
- Lambsquarters plant response rating [6, 15]: 100
- Plant response rating, Lambsquarters [6, 16]: 100
- Plant response rating, Lambsquarters [6, 17]: 100
- Lambsquarters plant response rating [6, 18]: 100
- Morningglory plant response rating [7, 15]: 100
- Plant response rating, Morningglory [7, 16]: 100
- Plant response rating, Morningglory [7, 17]: 90
- Morningglory plant response rating [7, 18]: 100
- Pigweed plant response rating [8, 15]: 90
- Plant response rating, Pigweed [8, 16]: 100
- Plant response rating, Pigweed [8, 17]: 90
- Pigweed plant response rating [8, 18]: 100
- Velvetleaf plant response rating [9, 15]: 70
- Plant response rating, Velvetleaf [9, 16]: 100
- Plant response rating, Velvetleaf [9, 17]: 90
- Velvetleaf plant response rating [9, 18]: 100
- Wheat plant response rating [10, 15]: 20
- Plant response rating, Wheat [10, 16]: 60
- Plant response rating, Wheat [10, 17]: 50
- Wheat plant response rating [10, 18]: 60
- Blackgrass plant response rating [11]: 60
- Plant response rating, Blackgrass [11]: 80
- Oat, Wild plant response rating (wild oat (Avena fatua)): 40
- Plant response rating, Oat, Wild (wild oat (Avena fatua)): 70
- Plant response rating, Barnyardgrass [12]: 80
- Plant response rating, Ducksalad [13]: 80
- Plant response rating, Rice (rice (Oryza sativa)): 60
- Plant response rating, Sedge, Umbrella [14]: 70

Structure (SMILES): CCOC(=O)Cc1nc(C2CC2)nc(N=CN(C)C)c1Br [Compound 33]
- Surinam Grass plant response rating [1, 15]: 0
- Plant response rating, Surinam Grass [1, 16]: 0
- Plant response rating, Surinam Grass [1, 17]: 0
- Surinam Grass plant response rating [1, 18]: 40
- Barnyardgrass plant response rating [2, 15]: 0
- Plant response rating, Barnyardgrass [2, 16]: 20
- Plant response rating, Barnyardgrass [2, 17]: 20
- Barnyardgrass plant response rating [2, 18]: 50
- Cocklebur plant response rating [3, 15]: 60
- Plant response rating, Cocklebur [3, 16]: 80
- Plant response rating, Cocklebur [3, 17]: 80
- Cocklebur plant response rating [3, 18]: 90
- Corn plant response rating (corn (Zea mays); [15]): 0
- Plant response rating, Corn (corn (Zea mays); [16]): 0
- Plant response rating, Corn (corn (Zea mays); [17]): 10
- Corn plant response rating (corn (Zea mays); [18]): 30
- Crabgrass plant response rating [4, 15]: 10
- Plant response rating, Crabgrass [4, 16]: 20
- Plant response rating, Crabgrass [4, 17]: 0
- Crabgrass plant response rating [4, 18]: 50
- Foxtail, Giant plant response rating [5, 15]: 10
- Plant response rating, Foxtail, Giant [5, 16]: 40
- Plant response rating, Foxtail, Giant [5, 17]: 0
- Foxtail, Giant plant response rating [5, 18]: 40
- Lambsquarters plant response rating [6, 15]: 60
- Plant response rating, Lambsquarters [6, 16]: 70
- Plant response rating, Lambsquarters [6, 17]: 90
- Lambsquarters plant response rating [6, 18]: 100
- Morningglory plant response rating [7, 15]: 40
- Plant response rating, Morningglory [7, 16]: 70
- Plant response rating, Morningglory [7, 17]: 0
- Morningglory plant response rating [7, 18]: 90
- Pigweed plant response rating [8, 15]: 60
- Plant response rating, Pigweed [8, 16]: 80
- Plant response rating, Pigweed [8, 17]: 80
- Pigweed plant response rating [8, 18]: 90
- Velvetleaf plant response rating [9, 15]: 40
- Plant response rating, Velvetleaf [9, 16]: 50
- Plant response rating, Velvetleaf [9, 17]: 70
- Velvetleaf plant response rating [9, 18]: 80
- Wheat plant response rating [10, 15]: 20
- Plant response rating, Wheat [10, 16]: 20
- Plant response rating, Wheat [10, 17]: 0
- Wheat plant response rating [10, 18]: 50
- Blackgrass plant response rating [11]: 40
- Plant response rating, Blackgrass [11]: 40
- Oat, Wild plant response rating (wild oat (Avena fatua)): 20
- Plant response rating, Oat, Wild (wild oat (Avena fatua)): 20
- Plant response rating, Barnyardgrass [12]: 0
- Plant response rating, Ducksalad [13]: 0
- Plant response rating, Rice (rice (Oryza sativa)): 0
- Plant response rating, Sedge, Umbrella [14]: 0

From patent publication US8802597B2, “Herbicidal pyrimidines” (E I du Pont de Nemours and Company, priority 2003, dated 2014)
